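Results reflect a 48-hour exposure of cells in 96-well plates to compound at five concentrations. TGI marks complete inhibition of growth.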
Experiments:
Assay in all cases: NCI-60 cell line screen, 48 h
[1] = test system: TK-10 renal
[2] = test system: DMS 114 small cell lung
[3] = test system: T-47D breast
[4] = test system: M19-MEL melanoma
[5] = test system: MOLT-4 leukemia
[6] = test system: SK-MEL-28 melanoma
[7] = test system: EKVX NSCLC
[8] = test system: MALME-3M melanoma
[9] = test system: SK-MEL-5 melanoma
[10] = test system: KM20L2 colon
[11] = test system: SNB-19 CNS
[12] = test system: LOX IMVI melanoma
[13] = test system: OVCAR-4 ovarian
[14] = test system: NCI-H460 lung
[15] = test system: RXF 393 renal
[16] = test system: A549 NSCLC
[17] = test system: NCI/ADR-RES ovarian
[18] = test system: DMS 273 small cell lung
[19] = test system: BT-549 breast
[20] = test system: PC-3 prostate
[21] = test system: NCI-H522 lung
[22] = test system: HS 578T breast
[23] = test system: DU-145 prostate
[24] = test system: CCRF-CEM leukemia
[25] = test system: UACC-62 melanoma
[26] = test system: CAKI-1 renal
[27] = test system: SF-295 CNS
[28] = test system: ACHN renal
[29] = test system: XF 498 CNS
[30] = test system: SK-MEL-2 melanoma
[31] = test system: UACC-257 melanoma
[32] = test system: HOP-92 NSCLC
[33] = test system: OVCAR-5 ovarian
[34] = test system: COLO 205 colon
[35] = test system: HCT-116 colon
[36] = test system: K-562 leukemia
[37] = test system: HT29 colon
[38] = test system: SNB-78 CNS
[39] = test system: LXFL 529 NSCLC
[40] = test system: IGROV1 ovarian
[41] = test system: U251 CNS
[42] = test system: RPMI-8226 leukemia
[43] = test system: OVCAR-8 ovarian
[44] = test system: KM12 colon
[45] = test system: HCT-15 colon
[46] = test system: SF-539 CNS
[47] = test system: SNB-75 CNS
[48] = test system: HOP-62 NSCLC
[49] = test system: SR leukemia
[50] = test system: HCC-2998 colon
[51] = test system: OVCAR-3 ovarian
[52] = test system: MDA-MB-435
[53] = test system: SF-268 CNS
[54] = test system: 786-0 renal
[55] = test system: HL-60(TB) leukemia
[56] = test system: SK-OV-3 ovarian
[57] = test system: MCF7 breast
[58] = test system: M14 melanoma
[59] = test system: MDA-N
[60] = test system: SN12C renal
[61] = test system: A498 renal
[62] = test system: NCI-H23 lung
[63] = test system: MDA-MB-231 breast
[64] = test system: SW-620 colon
[65] = test system: NCI-H226 lung
[66] = test system: UO-31 renal
[67] = test system: DLD-1 colon
[68] = test system: HOP-18 NSCLC

SMILES: Cc1cc(CS(=O)(=O)/C=C/c2ccccc2[N+](=O)[O-])c(CS(=O)(=O)/C=C/c2ccccc2[N+](=O)[O-])cc1C
- TGI [1]: > 81.8 µM
- TGI [2]: > 100 µM
- TGI [3]: > 100 µM
- TGI [4]: > 100 µM
- TGI [5]: > 100 µM
- TGI [6]: > 100 µM
- TGI [7]: > 100 µM
- TGI [8]: > 100 µM
- TGI [9]: > 100 µM
- TGI [10]: > 100 µM
- TGI [11]: > 83.1 µM
- TGI [12]: > 100 µM
- TGI [13]: 32.3 µM
- TGI [14]: > 100 µM
- TGI [15]: 41.2 µM
- TGI [16]: > 100 µM
- TGI [17]: > 100 µM
- TGI [18]: > 100 µM
- TGI [19]: 44.4 µM
- TGI [20]: > 100 µM
- TGI [21]: > 100 µM
- TGI [22]: > 62.5 µM
- TGI [23]: > 100 µM
- TGI [24]: > 46.4 µM
- TGI [25]: > 100 µM
- TGI [26]: > 100 µM
- TGI [27]: 63.2 µM
- TGI [28]: > 100 µM
- TGI [29]: 38.3 µM
- TGI [30]: 36.5 µM
- TGI [31]: > 100 µM
- TGI [32]: 74.1 µM
- TGI [33]: > 100 µM
- TGI [34]: > 100 µM
- TGI [35]: > 100 µM
- TGI [36]: > 100 µM
- TGI [37]: > 100 µM
- TGI [38]: 66.2 µM
- TGI [39]: > 100 µM
- TGI [40]: > 100 µM
- TGI [41]: 71.3 µM
- TGI [42]: > 86 µM
- TGI [43]: > 100 µM
- TGI [44]: > 100 µM
- TGI [45]: > 100 µM
- TGI [46]: 35.9 µM
- TGI [47]: 32 µM
- TGI [48]: 49.4 µM
- TGI [49]: > 100 µM
- TGI [50]: > 100 µM
- TGI [51]: > 100 µM
- TGI [52]: > 100 µM
- TGI [53]: > 100 µM
- TGI [54]: 34.9 µM
- TGI [55]: > 100 µM
- TGI [56]: 37.5 µM
- TGI [57]: > 100 µM
- TGI [58]: > 100 µM
- TGI [59]: 99.7 µM
- TGI [60]: > 100 µM
- TGI [61]: 70.9 µM
- TGI [62]: > 51.7 µM
- TGI [63]: > 51.2 µM
- TGI [64]: > 100 µM
- TGI [65]: 59.4 µM
- TGI [66]: > 100 µM

SMILES: COc1cc2c3c(c1OC)-c1ccccc1C(C(OC(C)=O)c1ccccc1)C3N(C)CC2 (centres undefined)
- TGI [1]: > 100 µM
- TGI [2]: > 100 µM
- TGI [67]: 91 µM
- TGI [4]: > 100 µM
- TGI [5]: > 100 µM
- TGI [6]: > 100 µM
- TGI [7]: > 100 µM
- TGI [8]: > 100 µM
- TGI [9]: 49.6 µM
- TGI [10]: > 100 µM
- TGI [11]: > 100 µM
- TGI [12]: > 100 µM
- TGI [13]: > 100 µM
- TGI [14]: > 100 µM
- TGI [15]: > 100 µM
- TGI [16]: > 100 µM
- TGI [18]: > 100 µM
- TGI [21]: > 100 µM
- TGI [24]: > 100 µM
- TGI [25]: > 100 µM
- TGI [26]: > 100 µM
- TGI [27]: > 100 µM
- TGI [28]: > 100 µM
- TGI [30]: 83.7 µM
- TGI [31]: > 100 µM
- TGI [32]: > 100 µM
- TGI [33]: > 100 µM
- TGI [34]: > 100 µM
- TGI [35]: > 100 µM
- TGI [37]: > 100 µM
- TGI [38]: > 100 µM
- TGI [39]: > 100 µM
- TGI [40]: > 100 µM
- TGI [41]: > 100 µM
- TGI [42]: 80.7 µM
- TGI [43]: > 100 µM
- TGI [44]: > 100 µM
- TGI [45]: > 100 µM
- TGI [46]: > 100 µM
- TGI [47]: > 100 µM
- TGI [68]: > 100 µM
- TGI [50]: > 100 µM
- TGI [51]: > 100 µM
- TGI [53]: > 100 µM
- TGI [54]: > 100 µM
- TGI [55]: > 100 µM
- TGI [56]: > 100 µM
- TGI [58]: > 100 µM
- TGI [60]: > 100 µM
- TGI [61]: > 100 µM
- TGI [62]: > 100 µM
- TGI [64]: > 100 µM
- TGI [65]: > 100 µM
- TGI [66]: > 100 µM

SMILES: CCOc1ccc(NC(=O)c2c(N/N=C/c3ccc(OC)cc3)nc(=O)[nH]c2C)cc1
- TGI [67]: > 100 µM
- TGI [4]: > 100 µM
- TGI [5]: > 100 µM
- TGI [6]: > 100 µM
- TGI [8]: > 100 µM
- TGI [13]: 88.4 µM
- TGI [14]: > 100 µM
- TGI [18]: > 100 µM
- TGI [21]: 69.7 µM
- TGI [24]: > 100 µM
- TGI [25]: > 100 µM
- TGI [26]: > 100 µM
- TGI [28]: > 100 µM
- TGI [29]: > 100 µM
- TGI [30]: > 100 µM
- TGI [32]: > 100 µM
- TGI [34]: > 100 µM
- TGI [35]: > 100 µM
- TGI [36]: > 100 µM
- TGI [38]: > 100 µM
- TGI [39]: > 100 µM
- TGI [40]: > 100 µM
- TGI [42]: > 100 µM
- TGI [45]: > 100 µM
- TGI [46]: 91 µM
- TGI [47]: 96.5 µM
- TGI [48]: > 100 µM
- TGI [49]: > 100 µM
- TGI [50]: > 100 µM
- TGI [53]: > 100 µM
- TGI [54]: > 100 µM
- TGI [55]: > 100 µM
- TGI [56]: 83.1 µM
- TGI [58]: > 100 µM
- TGI [60]: > 100 µM
- TGI [61]: 39.4 µM
- TGI [62]: > 100 µM
- TGI [65]: > 100 µM
- TGI [66]: > 100 µM

SMILES: Cc1nc2c(n1Cc1ccc(Cl)cc1)C(=O)c1ccccc1C2=O
- TGI [1]: > 75 µM
- TGI [67]: > 75 µM
- TGI [4]: > 75 µM
- TGI [5]: > 75 µM
- TGI [6]: > 75 µM
- TGI [7]: > 75 µM
- TGI [8]: > 75 µM
- TGI [9]: > 75 µM
- TGI [10]: > 75 µM
- TGI [11]: > 75 µM
- TGI [12]: > 75 µM
- TGI [13]: > 75 µM
- TGI [14]: > 75 µM
- TGI [15]: > 75 µM
- TGI [16]: > 75 µM
- TGI [18]: > 75 µM
- TGI [21]: > 75 µM
- TGI [24]: > 75 µM
- TGI [25]: > 75 µM
- TGI [27]: > 75 µM
- TGI [28]: > 75 µM
- TGI [29]: > 75 µM
- TGI [30]: > 75 µM
- TGI [31]: > 75 µM
- TGI [34]: > 75 µM
- TGI [35]: > 75 µM
- TGI [36]: > 75 µM
- TGI [37]: > 75 µM
- TGI [38]: > 75 µM
- TGI [39]: > 75 µM
- TGI [40]: > 75 µM
- TGI [41]: > 75 µM
- TGI [43]: > 75 µM
- TGI [44]: > 75 µM
- TGI [45]: > 75 µM
- TGI [46]: > 75 µM
- TGI [47]: > 75 µM
- TGI [48]: > 75 µM
- TGI [49]: > 75 µM
- TGI [50]: > 75 µM
- TGI [51]: > 75 µM
- TGI [53]: > 75 µM
- TGI [54]: > 75 µM
- TGI [55]: > 75 µM
- TGI [56]: > 75 µM
- TGI [58]: > 75 µM
- TGI [60]: > 75 µM
- TGI [62]: > 75 µM
- TGI [65]: > 75 µM
- TGI [66]: > 75 µM
